Measured values reported in ChEMBL document CHEMBL1201862, “PubChem BioAssay data set” (2004).
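Following 48 hours of exposure in 96-well plates, responses at five concentrations were used to interpolate endpoints linearly. Here, GI50 denotes the concentration required for 50% inhibition of growth.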 The source made the active and inactive calls. Rule as the data show it: active = GI50 up to about 1.1 µM and inactive = higher.

Experiments:
Assay in all cases: NCI anticancer screen, dose series, 48 h
[1] = system: SW-620
[2] = system: UACC-257
[3] = system: HCT-15
[4] = system: UACC-62
[5] = system: EKVX
[6] = system: CCRF-CEM
[7] = system: SNB-78
[8] = system: HCT-116
[9] = system: OVCAR-3
[10] = system: NCI-H460
[11] = system: OVCAR-8
[12] = system: SK-MEL-2
[13] = system: MOLT-4
[14] = system: HCC 2998
[15] = system: A549
[16] = system: HOP-92
[17] = system: TK-10

| Compound | GI50 [1] | GI50 [2] | GI50 [3] | GI50 [4] | GI50 [5] | GI50 [6] | GI50 [7] | GI50 [8] | GI50 [9] | GI50 [10] | GI50 [11] | GI50 [12] | GI50 [13] | GI50 [14] | GI50 [15] | GI50 [16] | GI50 [17] |
| --- | --- | --- | --- | --- | --- | --- | --- | --- | --- | --- | --- | --- | --- | --- | --- | --- | --- |
| O=c1cc[nH]c2ccc3nn[nH]c3c12 | > 100 µM (inactive) | > 100 µM (inactive) | > 100 µM | > 100 µM (inactive) | > 100 µM (inactive) | > 100 µM (inactive) | > 100 µM (inactive) | > 100 µM (inactive) | > 100 µM (inactive) | > 100 µM (inactive) | > 100 µM (inactive) | > 100 µM (inactive) | > 100 µM (inactive) | > 100 µM (inactive) | > 100 µM (inactive) | > 100 µM (inactive) | > 100 µM (inactive) |
| CC12CCCCC1(C)C2Sc1ccccc1 (configuration not stated) | 42.8 µM (inactive) | 39.1 µM (inactive) | 55.5 µM | 56.9 µM (inactive) | > 57.3 µM (inactive) | 19.7 µM (inactive) | > 44.3 µM (inactive) | 38.1 µM (inactive) | 27.9 µM (inactive) | > 68.4 µM (inactive) | 42 µM (inactive) | 23.4 µM (inactive) | 19.1 µM (inactive) | 31.4 µM (inactive) | 43.6 µM (inactive) | 26.7 µM (inactive) | > 100 µM (inactive) |
| CC1=C(C(=O)Nc2c(C)cccc2C)C(c2ccccc2Cl)C(C(=O)Nc2c(C)cccc2C)=C(C)N1 | > 100 µM (inactive) | > 100 µM (inactive) |  |  | > 100 µM (inactive) | > 100 µM (inactive) | > 100 µM (inactive) |  | > 100 µM (inactive) | > 100 µM (inactive) | > 100 µM (inactive) | > 100 µM (inactive) | > 100 µM (inactive) | > 100 µM (inactive) | > 100 µM (inactive) | > 100 µM (inactive) | > 100 µM (inactive) |
| NC1=NN(c2ccccc2)C(=O)C1C(=O)C(=O)Nc1ccccc1 (configuration not stated) | > 100 µM (inactive) | > 100 µM (inactive) | > 100 µM | > 100 µM (inactive) | > 100 µM (inactive) | > 100 µM (inactive) | > 100 µM (inactive) | > 100 µM (inactive) | > 100 µM (inactive) | > 100 µM (inactive) | > 100 µM (inactive) | > 100 µM (inactive) | > 100 µM (inactive) | > 100 µM (inactive) | > 100 µM (inactive) | > 100 µM (inactive) | > 100 µM (inactive) |
| CCOc1ccccc1NC(=O)C1=C(C)NC(C)=C(C(=O)Nc2ccccc2OCC)C1c1ccc([N+](=O)[O-])cc1 | > 100 µM (inactive) | 31.2 µM (inactive) | 75.3 µM | 26.1 µM (inactive) | 54 µM (inactive) |  | > 100 µM (inactive) | > 100 µM (inactive) | > 100 µM (inactive) | 63.2 µM (inactive) |  | 44.3 µM (inactive) |  | > 100 µM (inactive) | > 100 µM (inactive) | 10.5 µM (inactive) |  |
| COc1c(OC(C)=O)ccc(/C=C2\N=C(C)OC2=O)c1[N+](=O)[O-] | > 100 µM (inactive) | > 100 µM (inactive) | > 100 µM | > 100 µM (inactive) |  | > 100 µM (inactive) | > 100 µM (inactive) | > 100 µM (inactive) |  | > 100 µM (inactive) | > 100 µM (inactive) | > 100 µM (inactive) | > 100 µM (inactive) | > 100 µM (inactive) | > 100 µM (inactive) | > 100 µM (inactive) | > 100 µM (inactive) |
| C(=N\CC/N=C/c1cccc2ccccc12)/c1cccc2ccccc12 | > 100 µM (inactive) | > 100 µM (inactive) | > 100 µM | > 100 µM (inactive) | > 100 µM (inactive) |  | > 100 µM (inactive) | > 100 µM (inactive) |  | > 100 µM (inactive) | > 100 µM (inactive) | > 100 µM (inactive) | > 100 µM (inactive) | > 100 µM (inactive) | > 100 µM (inactive) | < 0.01 µM (active) | > 100 µM (inactive) |
| C[C@H](OCc1ccccc1)C(=O)N1CCS(=O)(=O)N2CCC[C@@H]2C1=O | > 100 µM (inactive) | > 100 µM (inactive) | > 100 µM | > 100 µM (inactive) | > 100 µM (inactive) | > 100 µM (inactive) | > 100 µM (inactive) | > 100 µM (inactive) | > 100 µM (inactive) | > 100 µM (inactive) | > 100 µM (inactive) |  | > 100 µM (inactive) | > 100 µM (inactive) | > 100 µM (inactive) | > 100 µM (inactive) | > 100 µM (inactive) |
| CCC(C(=O)O)c1ccc(OCc2ccccc2)cc1 (configuration not stated) | > 100 µM (inactive) | > 100 µM (inactive) |  | > 100 µM (inactive) | > 100 µM (inactive) | > 100 µM (inactive) | > 100 µM (inactive) | > 100 µM (inactive) | > 100 µM (inactive) | > 100 µM (inactive) |  | > 100 µM (inactive) | > 100 µM (inactive) | > 100 µM (inactive) | > 100 µM (inactive) | > 100 µM (inactive) | > 100 µM (inactive) |
| Cc1ccc(NC(=O)C(=O)CC(=O)c2c(C)[n+]([O-])c3ccccc3[n+]2[O-])cc1C | 49.4 µM (inactive) | > 100 µM (inactive) | 83.2 µM | > 100 µM (inactive) | > 100 µM (inactive) | 63.1 µM (inactive) | > 100 µM (inactive) | > 100 µM (inactive) | 48.4 µM (inactive) | 83 µM (inactive) | > 100 µM (inactive) | > 100 µM (inactive) |  | > 100 µM (inactive) | > 100 µM (inactive) | > 100 µM (inactive) | > 100 µM (inactive) |
| c1ccc(C2OCCO2)c(OCCOc2cc(OCCOc3ccccc3C3OCCO3)c(OCCOc3ccccc3C3OCCO3)cc2OCCOc2ccccc2C2OCCO2)c1 | 81.3 µM (inactive) | > 100 µM (inactive) | > 100 µM | 9.86 µM (inactive) |  | > 100 µM (inactive) | 5.46 µM (inactive) | 14.5 µM (inactive) | 17.8 µM (inactive) | 24.3 µM (inactive) | 13.9 µM (inactive) | 16.5 µM (inactive) | > 100 µM (inactive) |  | 24.4 µM (inactive) | 5.28 µM (inactive) | 14.7 µM (inactive) |
| CCCCNC(=O)C1C(=O)N(CCCC)C(=O)/C1=N\N (configuration not stated) | > 100 µM (inactive) | > 100 µM (inactive) | > 100 µM | > 100 µM (inactive) | > 100 µM (inactive) |  | > 100 µM (inactive) | > 100 µM (inactive) | > 100 µM (inactive) | > 100 µM (inactive) | > 100 µM (inactive) | > 100 µM (inactive) | > 100 µM (inactive) | > 100 µM (inactive) |  | > 100 µM (inactive) | > 100 µM (inactive) |
| O=C(O)/C(=C/c1c(O)ccc2ccccc12)c1csc(-c2nc(/C(=C\c3c(O)ccc4ccccc34)C(=O)O)cs2)n1 | 24 µM (inactive) | 14.9 µM (inactive) | 14.4 µM | 10.4 µM (inactive) | 41.2 µM (inactive) | 10.7 µM (inactive) | 13.6 µM (inactive) | 10.6 µM (inactive) | 13.3 µM (inactive) | 19 µM (inactive) | 22.2 µM (inactive) | 2.33 µM (inactive) | 13.4 µM (inactive) | 17.4 µM (inactive) | 23.3 µM (inactive) | 1.86 µM (inactive) | 29 µM (inactive) |
| ClC(Cl)[Si]12OCCN(CCO1)CCO2 | > 100 µM (inactive) | > 100 µM (inactive) |  | > 100 µM (inactive) |  | > 100 µM (inactive) | > 100 µM (inactive) | > 100 µM (inactive) | > 100 µM (inactive) | > 100 µM (inactive) | > 100 µM (inactive) | > 100 µM (inactive) | > 100 µM (inactive) | > 100 µM (inactive) | > 100 µM (inactive) | > 100 µM (inactive) | > 100 µM (inactive) |
| COc1ccc2[nH]c(=O)cc(C)c2c1[N+](=O)[O-] | > 100 µM (inactive) | > 100 µM (inactive) | > 100 µM | > 100 µM (inactive) | 82 µM (inactive) | > 100 µM (inactive) | > 100 µM (inactive) | > 100 µM (inactive) | > 100 µM (inactive) | > 100 µM (inactive) | > 100 µM (inactive) | > 100 µM (inactive) | > 100 µM (inactive) | > 100 µM (inactive) | > 100 µM (inactive) | 32.4 µM (inactive) | > 100 µM (inactive) |
| Cc1ccccc1NC(=O)C1C(=O)N(c2ccccc2C)C(=O)/C1=N\NC(N)=O (configuration not stated) | > 100 µM (inactive) | > 100 µM (inactive) | > 100 µM | > 100 µM (inactive) | > 100 µM (inactive) | > 100 µM (inactive) | > 100 µM (inactive) | > 100 µM (inactive) | > 100 µM (inactive) | > 100 µM (inactive) | > 100 µM (inactive) | > 100 µM (inactive) | > 100 µM (inactive) | > 100 µM (inactive) | > 100 µM (inactive) | > 100 µM (inactive) | > 100 µM (inactive) |
| CCN(CC)CCNC(=O)c1ccc([N+](=O)[O-])cc1OC | > 100 µM (inactive) | > 100 µM (inactive) | > 100 µM | > 100 µM (inactive) | > 100 µM (inactive) | > 100 µM (inactive) | > 100 µM (inactive) | > 100 µM (inactive) | > 100 µM (inactive) | > 100 µM (inactive) | > 100 µM (inactive) | > 100 µM (inactive) | > 100 µM (inactive) |  | > 100 µM (inactive) | > 100 µM (inactive) | > 100 µM (inactive) |
